From paper PMC9228641 (Journal of medicinal chemistry, 2021)
Read-outs that look alike come from different tables or passages of the source.

Tests used:
[1] = test system: HCV replicon D168A variant
[2] = test system: HCV replicon D168A variant; assay: microbe, parasite or virus in culture; conditions: Hepatitis C virus, Huh-7, 96 h, read-out: EC50 against D168A variant
[3] = test system: GT-3a NS3/4A protease; assay: Enzyme inhibition assay; type: biochemical, Hepatitis C virus; conditions: relative to 12
[4] = test system: HCV GT-3a replicon, S52/SG-Feo SHI; conditions: relative to 12
[5] = test system: WT HCV Con1 (GT-1b) reporter replicon containing the H77 (GT-1a) NS3 protease region; assay: Antiviral replicon assay, WT HCV; type: cell-based, Hepatitis C virus; conditions: for fold improvement in antiviral activity against WT HCV: more active, relative to 36
[6] = test system: HCV replicons; assay: Replicon assays, variant not given; type: cell-based, Hepatitis C virus; conditions: more potent than 38
[7] = less active, compared to the (S)-stereoisomer 30

**Q.** With `CCC(C)(C)OC(=O)N[C@H]1CCCCCC=C[C@@H]2C[C@@]2(C(=O)NS(=O)(=O)C2(C)CC2)NC(=O)[C@@H]2C[C@@H](Oc3nc4ccc(OC)cc4nc3C(F)(F)F)CN2C1=O` (stereo in doubt) [Compound 28, tert-Pentyl ((2R,6S,13aS,14aR,16aS,Z)-2-((6-methoxy-3-(trifluoromethyl)quinoxalin-2-yl)oxy)-14a-(((1-methylcyclopropyl)sulfonyl)carbamoyl)-5,16-dioxo-1,2,3,5,6,7,8,9,10,11,13a,14,14a,15,16,16a-hexadecahydrocyclopropa[e]pyrrolo[1,2-a][1,4]diazacyclopentadecin-6-yl)carbamate] as the compound, how does the “fold lower antiviral activity against the D168A variant” value ([1]; lower, relative to 3) read?
**A.** 2 fold

**Q.** Which EC50 [2] does the source give for `COc1ccc2nc(C)c(O[C@@H]3C[C@H]4C(=O)N[C@]5(C(=O)NS(=O)(=O)C6(C)CC6)C[C@H]5/C=C/CCCCC[C@H](NC(=O)OC5C[C@@H]6C[C@@H]6C5)C(=O)N4C3)nc2c1` (some centres unmarked) [Compound 20] here?
**A.** 0.5 nM

**Q.** How did the “fold lower activity against GT-3a, enzyme assay” value [3] turn out when `COc1ccc2nc(C)c(O[C@@H]3C[C@H]4C(=O)N[C@]5(C(=O)NS(=O)(=O)C6(C)CC6)C[C@H]5C=CCCCCC[C@H](NC(=O)OCC5(C(F)(F)F)CC5)C(=O)N4C3)nc2c1` (stereo in doubt) [Compound 15, (1-(Trifluoromethyl)cyclopropyl)methyl ((2R,6S,13aS,14aR,16aS,Z)-2-((7-methoxy-3-methylquinoxalin-2-yl)oxy)-14a-(((1-methylcyclopropyl)sulfonyl)carbamoyl)-5,16-dioxo-1,2,3,5,6,7,8,9,10,11,13a,14,14a,15,16,16a-hexadecahydrocyclopropa[e]pyrrolo[1,2-a][1,4]diazacyclopentadecin-6-yl)carbamate] was run?
**A.** 2 fold

**Q.** What about the “fold lower activity against GT-3a, replicon assay” value [4] of the same compound?
**A.** 2 fold

**Q.** For `COc1ccc2nc(C)c(O[C@@H]3C[C@H]4C(=O)N[C@]5(C(=O)NS(=O)(=O)C6(C)CC6)C[C@H]5C=CCCCCC[C@H](NC(=O)OC5(C(F)(F)F)CCCC5)C(=O)N4C3)nc2c1` (stereo in doubt) [Compound 24, 1-(Trifluoromethyl)cyclopentyl ((2R,6S,13aS,14aR,16aS,Z)-2-((7-methoxy-3-methylquinoxalin-2-yl)oxy)-14a-(((1-methylcyclopropyl)sulfonyl)carbamoyl)-5,16-dioxo-1,2,3,5,6,7,8,9,10,11,13a,14,14a,15,16,16a-hexadecahydrocyclopropa[e]pyrrolo[1,2-a][1,4]diazacyclopentadecin-6-yl)carbamate], which “fold improvement in potency against the D168A variant, replicon assay” value ([1]; improvement, relative to the parent 18) is on record?
**A.** 2 fold

**Q.** Which results are given for `COc1ccc2nc(O[C@@H]3C[C@H]4C(=O)N[C@]5(C(=O)NS(=O)(=O)C6(C)CC6)C[C@H]5C=CCCCCC[C@H](NC(=O)O[C@H](C)C(C)C)C(=O)N4C3)c(C(F)(F)F)nc2c1` (stereo in doubt) [Compound 31, (R)-3-Methylbutan-2-yl ((2R,6S,13aS,14aR,16aS,Z)-2-((6-methoxy-3-(trifluoromethyl)quinoxalin-2-yl)oxy)-14a-(((1-methylcyclopropyl)sulfonyl)carbamoyl)-5,16-dioxo-1,2,3,5,6,7,8,9,10,11,13a,14,14a,15,16,16a-hexadecahydrocyclopropa[e]pyrrolo[1,2-a][1,4]diazacyclopentadecin-6-yl)carbamate]?
**A.** fold less active against WT replicon [5, 7]: 2 fold; fold less active against D168A replicon [1, 7]: 2 fold

**Q.** How did the “fold improvement in antiviral activity against WT HCV” value [5] turn out when `COc1ccc2nc(O[C@@H]3C[C@H]4C(=O)N[C@]5(C(=O)NS(=O)(=O)C6(C)CC6)C[C@H]5C=CCCCCC[C@H](NC(=O)OCC5(C(F)(F)F)CC5)C(=O)N4C3)c(C(F)(F)F)nc2c1` (stereo in doubt) [Compound 40, (1-(Trifluoromethyl)cyclopropyl)methyl ((2R,6S,13aS,14aR,16aS,Z)-2-((6-methoxy-3-(trifluoromethyl)quinoxalin-2-yl)oxy)-14a-(((1-methylcyclopropyl)sulfonyl)carbamoyl)-5,16-dioxo-1,2,3,5,6,7,8,9,10,11,13a,14,14a,15,16,16a-hexadecahydrocyclopropa[e]pyrrolo[1,2-a][1,4]diazacyclopentadecin-6-yl)carbamate] was run?
**A.** 2 fold

**Q.** What about the “fold more active against the D168A variant” value ([1]; more active, relative to 36) of the same compound?
**A.** 2 fold

**Q.** With `COc1ccc2nc(C)c(O[C@@H]3C[C@H]4C(=O)N[C@]5(C(=O)NS(=O)(=O)C6(C)CC6)C[C@H]5C=CCCCCC[C@H](NC(=O)O[C@H](C)C(F)(F)F)C(=O)N4C3)nc2c1` (stereo in doubt) [Compound 14, (R)-1,1,1-Trifluoropropan-2-yl ((2R,6S,13aS,14aR,16aS,Z)-2-((7-methoxy-3-methylquinoxalin-2-yl)oxy)-14a-(((1-methylcyclopropyl)sulfonyl)carbamoyl)-5,16-dioxo-1,2,3,5,6,7,8,9,10,11,13a,14,14a,15,16,16a-hexadecahydrocyclopropa[e]pyrrolo[1,2-a][1,4]diazacyclopentadecin-6-yl)carbamate] as the compound, how does the “fold better potency against the D168A variant” value ([1]; relative to 13) read?
**A.** 2 fold

**Q.** What does the source list for `COc1ccc2nc(C)c(O[C@@H]3C[C@H]4C(=O)N[C@]5(C(=O)NS(=O)(=O)C6(C)CC6)C[C@H]5C=CCCCCC[C@H](NC(=O)OC(C)(C)C(F)(F)F)C(=O)N4C3)nc2c1` (stereo in doubt) [Compound 12, 1,1,1-Trifluoro-2-methylpropan-2-yl ((2R,6S,13aS,14aR,16aS,Z)-2-((7-methoxy-3-methylquinoxalin-2-yl)oxy)-14a-(((1-methylcyclopropyl)sulfonyl)carbamoyl)-5,16-dioxo-1,2,3,5,6,7,8,9,10,11,13a,14,14a,15,16,16a-hexadecahydrocyclopropa[e]pyrrolo[1,2-a][1,4]diazacyclopentadecin-6-yl)carbamate]?
**A.** EC50 ([5]; Hepatitis C virus, GT1A|GT1B, Huh-7, 96 h, read-out: EC50 against WT HCV): < 5 nM; EC50 [2]: < 5 nM

**Q.** How did the “fold improvement in antiviral activity against WT HCV” value [5] turn out when `COc1ccc2nc(O[C@@H]3C[C@H]4C(=O)N[C@]5(C(=O)NS(=O)(=O)C6(C)CC6)C[C@H]5C=CCCCCC[C@H](NC(=O)OCC5(C)CC5(F)F)C(=O)N4C3)c(C(F)(F)F)nc2c1` (stereo in doubt) [Compound 41, (2,2-Difluoro-1-methylcyclopropyl)methyl ((2R,6S,13aS,14aR,16aS,Z)-2-((6-methoxy-3-(trifluoromethyl)quinoxalin-2-yl)oxy)-14a-(((1-methylcyclopropyl)sulfonyl)carbamoyl)-5,16-dioxo-1,2,3,5,6,7,8,9,10,11,13a,14,14a,15,16,16a-hexadecahydrocyclopropa[e]pyrrolo[1,2-a][1,4]diazacyclopentadecin-6-yl)carbamate] was run?
**A.** 2 fold

**Q.** With `COc1ccc2nc(C)c(O[C@@H]3C[C@H]4C(=O)N[C@]5(C(=O)NS(=O)(=O)C6(C)CC6)C[C@H]5/C=C/CCCCC[C@H](NC(=O)OC5CCC5)C(=O)N4C3)nc2c1` [Compound 21] as the compound, how does the EC50 [2] read?
**A.** < 5 nM

**Q.** With `COc1ccc2nc(O[C@@H]3C[C@H]4C(=O)N[C@]5(C(=O)NS(=O)(=O)C6(C)CC6)C[C@H]5C=CCCCCC[C@H](NC(=O)O[C@H](C)C(F)(F)F)C(=O)N4C3)c(C(F)(F)F)nc2c1` (stereo in doubt) [Compound 39, (R)-1,1,1-Trifluoropropan-2-yl ((2R,6S,13aS,14aR,16aS,Z)-2-((6-methoxy-3-(trifluoromethyl)quinoxalin-2-yl)oxy)-14a-(((1-methylcyclopropyl)sulfonyl)carbamoyl)-5,16-dioxo-1,2,3,5,6,7,8,9,10,11,13a,14,14a,15,16,16a-hexadecahydrocyclopropa[e]pyrrolo[1,2-a][1,4]diazacyclopentadecin-6-yl)carbamate] as the compound, how does the “fold more potent in replicon assays” value [6] read?
**A.** at least 2 fold

**Q.** `COc1ccc2nc(O[C@@H]3C[C@H]4C(=O)N[C@]5(C(=O)NS(=O)(=O)C6(C)CC6)C[C@H]5C=CCCCCC[C@H](NC(=O)OC5(C(F)(F)F)CCCC5)C(=O)N4C3)c(C(F)(F)F)nc2c1` (stereo in doubt) [Compound 48, 1-(Trifluoromethyl)cyclopentyl ((2R,6S,13aS,14aR,16aS,Z)-2-((6-methoxy-3-(trifluoromethyl)quinoxalin-2-yl)oxy)-14a-(((1-methylcyclopropyl)sulfonyl)carbamoyl)-5,16-dioxo-1,2,3,5,6,7,8,9,10,11,13a,14,14a,15,16,16a-hexadecahydrocyclopropa[e]pyrrolo[1,2-a][1,4]diazacyclopentadecin-6-yl)carbamate] was tested. Which “fold better potency against the D168A variant” value ([1]; compared to 42) did it give?
**A.** 3 fold

**Q.** With `COc1ccc2nc(C)c(O[C@@H]3C[C@H]4C(=O)N[C@]5(C(=O)NS(=O)(=O)C6(C)CC6)C[C@H]5C=CCCCCC[C@H](NC(=O)O[C@@H](C)C(F)(F)F)C(=O)N4C3)nc2c1` (stereo in doubt) [Compound 13, (S)-1,1,1-Trifluoropropan-2-yl ((2R,6S,13aS,14aR,16aS,Z)-2-((7-methoxy-3-methylquinoxalin-2-yl)oxy)-14a-(((1-methylcyclopropyl)sulfonyl)carbamoyl)-5,16-dioxo1,2,3,5,6,7,8,9,10,11,13a,14,14a,15,16,16a-hexadecahydrocyclopropa[e]pyrrolo[1,2-a][1,4]diazacyclopentadecin-6-yl)carbamate] as the compound, how does the EC50 [2] read?
**A.** < 10 nM
